Measurements as given in patent US20240252488A1 (KOREA RESEARCH INSTITUTE OF CHEMICAL TECHNOLOGY, priority 2020, published 2024).

Tests used:
FADD−/− Jurkat cells = assay: Necroptosis inhibition assay, TNF-α-induced necroptosis (CellTiter-Glo 2.0); type: cell-based, human; details: TNF-α 15 ng/mL; for Necroptosis inhibition assay (Rescue %) 1 μM: compound 1 μM; for Necroptosis inhibition assay (Rescue %) 10 μM: compound 10 μM
Procedure, shortened: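 Necroptosis was triggered by TNF-α at 15 ng/mL final following 30 minutes of compound exposure (0.1, 1 or 10 μM final). Incubation ran 20 to 24 hours at 37° C under 5% CO2; cell ATP was then quantified by luminescence.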

MLKL [1] = target: T1, MLKL (Homo sapiens, UniProt Q8NB16); assay: Measurement of binding affinity with MLKL receptor (competitive binding assay, Kd); set-up: made in house; host or cells: HEK 293 cell line (T7 phage in E. coli BL21-derived host is also described)
T1 sequence (Q8NB16 1-471): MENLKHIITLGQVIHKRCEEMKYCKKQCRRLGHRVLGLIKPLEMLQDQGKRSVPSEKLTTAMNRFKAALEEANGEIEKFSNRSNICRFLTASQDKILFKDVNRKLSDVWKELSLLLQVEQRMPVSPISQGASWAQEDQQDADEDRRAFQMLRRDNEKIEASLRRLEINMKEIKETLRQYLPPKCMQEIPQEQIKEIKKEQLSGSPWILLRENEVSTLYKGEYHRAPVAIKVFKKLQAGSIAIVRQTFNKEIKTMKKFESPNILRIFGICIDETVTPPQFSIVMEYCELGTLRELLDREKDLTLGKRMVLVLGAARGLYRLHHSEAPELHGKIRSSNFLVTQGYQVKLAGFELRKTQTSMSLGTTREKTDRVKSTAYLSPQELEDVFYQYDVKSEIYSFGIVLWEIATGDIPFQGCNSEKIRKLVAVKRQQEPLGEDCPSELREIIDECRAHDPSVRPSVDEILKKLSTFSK
Procedure, shortened: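 Competition binding of kinase tagged with DNA for qPCR detection, expressed in HEK 293 cells, against immobilized ligand on beads. Final DMSO 0.9%. Kd derived from kinase amount in eluates measured by qPCR.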

MLKL [2] = target: T1, MLKL; assay: MLKL degradation assay in HepG2 cell line (western blot); type: cell-based; set-up: endogenous in cells; host or cells: HepG2 or HaCaT; details: cell line not given; for Degradation assay (Degradation %) 1 μM: compound 1 μM; for Degradation assay (Degradation %) 10 μM: compound 10 μM
Procedure, shortened: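 After treating HepG2 with test compounds (final 1 μM or 10 μM) for 20-24 h, we lysed cells, equalized protein by BCA and probed MLKL by overnight primary antibody at 4 °C followed by chemiluminescent detection.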

Structure (SMILES)	Necroptosis inhibition assay (Rescue %) 1 μM (FADD−/− Jurkat cells) [%]	Necroptosis inhibition assay (Rescue %) 10 μM (FADD−/− Jurkat cells) [%]	Kd (MLKL [1]) [nM]	Degradation assay (Degradation %) 1 μM (MLKL [2]) [%]	Degradation assay (Degradation %) 10 μM (MLKL [2]) [%]
Nc1ncc(-c2cnn([C@@H]3CCN(CC4CCN(C(=O)CNc5cccc6c5C(=O)N(C5CCC(=O)NC5=O)C6=O)CC4)C3)c2)nc1C(=O)OC(C(=O)Nc1ccc(F)cc1)c1ccccc1 (stereo partly drawn) [TDH-285, 2-((4-fluorophenyl)amino)-2-oxo-1-phenylethyl 3-amino-6-(1-((3R)-1-((1-((2-(2,6-dioxopiperidin-3-yl)-1,3-dioxoisoindolin-4-yl)glycyl)piperidin-4-yl)methyl)pyrrolidin-3-yl)-1H-pyrazol-4-yl)pyrazine-2-carboxylate]	36.72	40.43	13	56.55	50.66
Nc1ncc(-c2cnn([C@@H]3CCN(CC4CCN(C(=O)CNc5ccc6c(c5)C(=O)N(C5CCC(=O)NC5=O)C6=O)CC4)C3)c2)nc1C(=O)OC(C(=O)Nc1ccc(F)cc1)c1ccccc1 (stereo partly drawn) [TDH-286, 2-((4-fluorophenyl)amino)-2-oxo-1-phenylethyl 3-amino-6-(1-((3R)-1-((1-((2-(2,6-dioxopiperidin-3-yl)-1,3-dioxoisoindolin-5-yl)glycyl)piperidin-4-yl)methyl)pyrrolidin-3-yl)-1H-pyrazol-4-yl)pyrazine-2-carboxylate]	88.45	79.75	12	71.83	71.94
Nc1ncc(-c2cnn([C@@H]3CCN(CC4CCN(C(=O)COc5cccc6c5C(=O)N(C5CCC(=O)NC5=O)C6=O)CC4)C3)c2)nc1C(=O)OC(C(=O)Nc1ccc(F)cc1)c1ccccc1 (stereo partly drawn) [TDH-287, 2-((4-fluorophenyl)amino)-2-oxo-1-phenylethyl 3-amino-6-(1-((3R)-1-((1-(2-((2-(2,6-dioxopiperidin-3-yl)-1,3-dioxoisoindolin-4-yl)oxy)acetyl)piperidin-4-yl)methyl)pyrrolidin-3-yl)-1H-pyrazol-4-yl)pyrazine-2-carboxylate]	71.05	72.7	3.7	75.04	65.94
Nc1ncc(-c2cnn([C@@H]3CCN(CC4CCN(C(=O)COc5ccc6c(c5)C(=O)N(C5CCC(=O)NC5=O)C6=O)CC4)C3)c2)nc1C(=O)OC(C(=O)Nc1ccc(F)cc1)c1ccccc1 (stereo partly drawn) [TDH-288, 2-((4-fluorophenyl)amino)-2-oxo-1-phenylethyl 3-amino-6-(1-((3R)-1-((1-(2-((2-(2,6-dioxopiperidin-3-yl)-1,3-dioxoisoindolin-5-yl)oxy)acetyl)piperidin-4-yl)methyl)pyrrolidin-3-yl)-1H-pyrazol-4-yl)pyrazine-2-carboxylate]	70.93	66.54	5.2	75.31	89.16
Nc1ncc(-c2cnn(C3CCN(CCC4CCN(C(=O)C5CCN(c6cccc7nnn(C8CCC(=O)NC8=O)c(=O)c67)CC5)CC4)CC3)c2)nc1C(=O)OC(C(=O)Nc1ccc(F)cc1)c1ccccc1 (stereo not shown) [TDH-289, 2-((4-fluorophenyl)amino)-2-oxo-1-phenylethyl 3-amino-6-(1-(1-(2-(1-(1-(3-(2,6-dioxopiperidin-3-yl)-4-oxo-3,4-dihydrobenzo[d][1,2,3]triazin-5-yl)piperidine-4-carbonyl)piperidin-4-yl)ethyl)piperidin-4-yl)-1H-pyrazol-4-yl)pyrazine-2-carboxylate]	67.46	61.24	2.2	66.33	43.03
Nc1ncc(-c2cnn(C3CCN(CCC4CCN(C(=O)C5CCN(c6ccc7nnn(C8CCC(=O)NC8=O)c(=O)c7c6)CC5)CC4)CC3)c2)nc1C(=O)OC(C(=O)Nc1ccc(F)cc1)c1ccccc1 (stereo not shown) [TDH-290, 2-((4-fluorophenyl)amino)-2-oxo-1-phenylethyl 3-amino-6-(1-(1-(2-(1-(1-(3-(2,6-dioxopiperidin-3-yl)-4-oxo-3,4-dihydrobenzo[d][1,2,3]triazin-6-yl)piperidine-4-carbonyl)piperidin-4-yl)ethyl)piperidin-4-yl)-1H-pyrazol-4-yl)pyrazine-2-carboxylate]	90.57	84.93	5.3	56.44	44.97
Nc1ncc(-c2cnn(C3CCN(CCC4CCN(C(=O)C5CN(c6ccc7nnn(C8CCC(=O)NC8=O)c(=O)c7c6)C5)CC4)CC3)c2)nc1C(=O)OC(C(=O)Nc1ccc(F)cc1)c1ccccc1 (stereo not shown) [TDH-291, 2-((4-fluorophenyl)amino)-2-oxo-1-phenylethyl 3-amino-6-(1-(1-(2-(1-(1-(3-(2,6-dioxopiperidin-3-yl)-4-oxo-3,4-dihydrobenzo[d][1,2,3]triazin-6-yl)azetidine-3-carbonyl)piperidin-4-yl)ethyl)piperidin-4-yl)-1H-pyrazol-4-yl)pyrazine-2-carboxylate]	87.96	64.92	6.7	70.94	48.11
Nc1ncc(-c2cnn(C3CCN(CCC4CCN(C(=O)CNc5ccc6nnn(C7CCC(=O)NC7=O)c(=O)c6c5)CC4)CC3)c2)nc1C(=O)OC(C(=O)Nc1ccc(F)cc1)c1ccccc1 (stereo not shown) [TDH-292, 2-((4-fluorophenyl)amino)-2-oxo-1-phenylethyl 3-amino-6-(1-(1-(2-(1-((3-(2,6-dioxopiperidin-3-yl)-4-oxo-3,4-dihydrobenzo[d][1,2,3]triazin-6-yl)glycyl)piperidin-4-yl)ethyl)piperidin-4-yl)-1H-pyrazol-4-yl)pyrazine-2-carboxylate]	78.15	73.02	2.3	79.96	81.68
Nc1ncc(-c2cnn(C3CCN(CCC4CCN(C(=O)COc5ccc6nnn(C7CCC(=O)NC7=O)c(=O)c6c5)CC4)CC3)c2)nc1C(=O)OC(C(=O)Nc1ccc(F)cc1)c1ccccc1 (stereo not shown) [TDH-293, 2-((4-fluorophenyl)amino)-2-oxo-1-phenylethyl 3-amino-6-(1-(1-(2-(1-(2-((3-(2,6-dioxopiperidin-3-yl)-4-oxo-3,4-dihydrobenzo[d][1,2,3]triazin-6-yl)oxy)acetyl)piperidin-4-yl)ethyl)piperidin-4-yl)-1H-pyrazol-4-yl)pyrazine-2-carboxylate]	108.66	87.1	2.3	76.09	71.04
Nc1ncc(-c2cnn(C3CCN(CCC4CCN(c5cccc6nnn(C7CCC(=O)NC7=O)c(=O)c56)CC4)CC3)c2)nc1C(=O)OC(C(=O)Nc1ccc(F)cc1)c1ccccc1 (stereo not shown) [TDH-294, 2-((4-fluorophenyl)amino)-2-oxo-1-phenylethyl 3-amino-6-(1-(1-(2-(1-(3-(2,6-dioxopiperidin-3-yl)-4-oxo-3,4-dihydrobenzo[d][1,2,3]triazin-5-yl)piperidin-4-yl)ethyl)piperidin-4-yl)-1H-pyrazol-4-yl)pyrazine-2-carboxylate]	67.12	33.24	4.7	25.53	23.63
Nc1ncc(-c2cnn(C3CCN(CCC4CCN(c5ccc6nnn(C7CCC(=O)NC7=O)c(=O)c6c5)CC4)CC3)c2)nc1C(=O)OC(C(=O)Nc1ccc(F)cc1)c1ccccc1 (stereo not shown) [TDH-295, 2-((4-fluorophenyl)amino)-2-oxo-1-phenylethyl 3-amino-6-(1-(1-(2-(1-(3-(2,6-dioxopiperidin-3-yl)-4-oxo-3,4-dihydrobenzo[d][1,2,3]triazin-6-yl)piperidin-4-yl)ethyl)piperidin-4-yl)-1H-pyrazol-4-yl)pyrazine-2-carboxylate]	63.46	37.73	8.1	70.94	57.99
